Measurements as given in BindingDB's records for doi:10.1016/j.bioorg.2016.10.003 (Indian Institute of Technology (Banaras Hindu University), 2016).

molecular target: T1, Prostaglandin G/H synthase 1 (Ovis aries, UniProt P05979); test: In vitro COX Inhibition Assay
T1 sequence (P05979 whole entry): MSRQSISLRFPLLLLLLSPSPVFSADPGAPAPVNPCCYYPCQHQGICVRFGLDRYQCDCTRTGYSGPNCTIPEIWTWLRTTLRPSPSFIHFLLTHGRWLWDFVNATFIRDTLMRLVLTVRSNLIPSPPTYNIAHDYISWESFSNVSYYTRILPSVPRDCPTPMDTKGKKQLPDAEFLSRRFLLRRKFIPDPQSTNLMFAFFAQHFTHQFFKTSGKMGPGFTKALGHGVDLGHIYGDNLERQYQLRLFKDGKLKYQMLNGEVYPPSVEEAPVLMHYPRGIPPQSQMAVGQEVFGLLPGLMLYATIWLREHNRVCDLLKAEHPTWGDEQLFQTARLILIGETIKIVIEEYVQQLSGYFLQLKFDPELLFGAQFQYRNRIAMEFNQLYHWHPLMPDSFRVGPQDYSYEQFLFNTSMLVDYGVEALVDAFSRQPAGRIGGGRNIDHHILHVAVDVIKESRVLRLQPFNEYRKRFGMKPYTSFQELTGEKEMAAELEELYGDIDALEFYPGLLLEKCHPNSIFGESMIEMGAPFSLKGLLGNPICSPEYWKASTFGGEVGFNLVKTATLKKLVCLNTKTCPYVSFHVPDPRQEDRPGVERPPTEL
Procedure: The peroxidase activity is assayed colorimetrically by monitoring the appearance of oxidised N,N,N',N'-tetramethyl-p-phenylenediamine (TMPD) at 590 nm.

| Compound | IC50 [µM] |
| --- | --- |
| COc1ccc(Nc2nnc(Cn3nc(-c4ccccc4)c(-c4ccccc4)nc3=O)s2)cc1 [2-((5-(4-Methoxyphenylamino)-1,3,4-thiadiazol-2-yl)methyl)-5,6-diphenyl-1,2,4-triazin-3(2H)-one (4c)] | 60.1 |
| O=c1nc(-c2ccccc2)c(-c2ccccc2)nn1Cc1nnc(Nc2ccc([N+](=O)[O-])cc2)s1 [2-((5-(4-Nitrophenylamino)-1,3,4-thiadiazol-2-yl)methyl)-5,6-diphenyl-1,2,4-triazin-3(2H)-one (4e)] | 63.2 |
| O=c1nc(-c2ccccc2)c(-c2ccccc2)nn1Cc1nnc(Nc2ccc(Cl)cc2)s1 [2-((5-(4-Chlorophenylamino)-1,3,4-thiadiazol-2-yl)methyl)-5,6-diphenyl-1,2,4-triazin-3(2H)-one (4d)] | 62.2 |

Continued, values first:

| IC50 [µM] | Compound |
| --- | --- |
| 60.5 | COc1ccc(Nc2nnc(Cn3nc(-c4ccccc4)c(-c4ccccc4)nc3=O)o2)cc1 [2-((5-(4-Methoxyphenylamino)-1,3,4-oxadiazol-2-yl)methyl)-5,6-diphenyl-1,2,4-triazin-3(2H)-one (3c)] |
| 62.4 | O=c1nc(-c2ccccc2)c(-c2ccccc2)nn1Cc1nnc(Nc2ccc([N+](=O)[O-])cc2)o1 [2-((5-(4-Nitrophenylamino)-1,3,4-oxadiazol-2-yl)methyl)-5,6-diphenyl-1,2,4-triazin-3(2H)-one (3e)] |
| 64.5 | O=c1nc(-c2ccccc2)c(-c2ccccc2)nn1Cc1nnc(Nc2ccc(Cl)cc2)o1 [2-((5-(4-Chlorophenylamino)-1,3,4-oxadiazol-2-yl)methyl)-5,6-diphenyl-1,2,4-triazin-3(2H)-one (3d)] |
